One experiment relates to MV-4-11 cells. The experiment can be described thus: CellTiter-Glo cell viability, MV-4-11 cells. Type of experiment: cell-based. As for the experimental part: All cell lines were purchased from ATCC or DSMZ and grown at 37° C. with 5% C02. Human HeLa cells were cultured in complete growth medium (Dulbecco's modified Eagle's medium (DMEM) supplemented with 10% FBS); MCF7 cells were cultured in complete growth medium (Dulbecco's modified Eagle's medium (DMEM) supplemented with 10% FBS and 0.01 mg/ml human recombinant insulin (Sigma Aldrich); Namalwa and MOLM-13 cells were cultured in complete growth medium (RPMI 1640 medium supplemented with 10% FBS); MV-4-11 were cultured in complete growth medium (Iscove's Modified Dulbecco's medium, supplemented with 10% FBS); HCT116 cells were cultured in complete growth medium (McCoy's 5a Medium supplemented with 10% FBS). For cellular degradation of BRD4 studies, cells were seeded in a 12-well plate at 70-80% confluency, allowed to attach overnight, and incubated with the indicated compounds for the indicated time. When indicated, a 15-minute pretreatment with 10 μM pomalidomide, 10 μM VHL298, 10 μM Nutlin3a, 1 μM MG-132 or 1 μM Carfilzomib was performed before the addition of CURE-PROs. For washout studies, after CURE-PRO treatment, media was aspirated and incubated with complete medium for the indicated time before lysis.
CellTiter-Glo® 2.0 Cell Viability Assay (Promega) was carried out following the manufacturer's recommendations. Cells were seeded at a density of 1000 cells/well in a white 96 well plates (Corning, #3917) in a total volume of 100 μl with respective monomers, combinations of BRD ligands together with E3 ligase ligands or vehicle control treatment. After a 72 h incubation, 100 ul of the CellTiter-Glo® substrate was added per well and luminescence was read on a Spectramax M5 (Molecular Devices). Dose-response curves were generated using Graphpad Prism software.
MV-4-11 cells (5×104) were treated for 24 hours with the sample compounds solubilized in DMSO. The compounds were added at 1 nM-100 μM each. Cellular viability was determined using the CellTiter-Glo® Luminescent Cell Viability Assay (Promega) described above. FIGS. 19-22 depict the CURE-PRO-mediated loss of cellular viability for BRD monomers (JQ1 derivatives comprising of catechol linkers), and CRBN ligand, 8049 (pomalidomide derivatives comprising boronic acid linkers) combined in a 1:1 ratio.
MV-4-11 cells (1×104) were treated for 72 hours with the compounds solubilized in DMSO. Compounds were added at 10 nM-100 μM each. Cellular viability was determined using the CellTiter-Glo® Luminescent Cell Viability Assay (Promega) described above. FIGS. 47-54 depict the CURE-PRO-mediated loss of cellular viability for BRD monomers (JQ1 derivatives comprising of boronic acid linkers), and CRBN ligands, 8046, 8047, and 8066 (pomalidomide derivatives comprising diol linkers) combined in a 1:1 ratio.
Background: ATP-based viability assays read luminescence as a measure of living cells.

Another experiment has as its target BRD4 (Homo sapiens, UniProt O60885). In words: Summary of E3 ligase directed degradation of BRD4, estimated from Western Blot or WES (Tables 1-6). In kind it is cell-based. Also noted: endogenous in cells; host or cells: HeLa, MCF7 or HCT116. The conditions noted are these: for Degradation of BRD4, combination with CRBN ligand [drawing 457]: aryl-boronic acid-containing CRBN ligand drawn as drawing 457 (by the text apparently 8048). As for the experimental part:
HeLa, MCF7, or HCT116 cells (2.5-3×10^6) were treated for 24 hours with the indicated compounds solubilized in DMSO. The cells were washed in ice-cold PBS and were then lysed in RIPA lysis buffer (150 mM NaCl, 5 mM EDTA, 1% NP-40, 0.5% sodium deoxycholate, 0.1% SDS, 50 mM Tris, pH 8.0) with Roche protease inhibitor complete cocktail and phosphatase inhibitors (10 mM sodium fluoride, 10 mM sodium pyrophosphate, 1 mM sodium orthovanadate and 20 mM β-glycerophosphate). The total protein concentrations were determined by Bradford Protein Assay and 10-20 μg of protein was loaded onto 4-15% Tris-Glycine gradient gels (Biorad). After standard gel electrophoresis, the separated proteins were transferred to PVDF membrane by wet transfer. The immunoblots were then blocked for 1 hour in 5% skim milk in TBST or 5% BSA in TBST, according to manufacturer's instructions, before an overnight incubation at 4° C. with indicated antibodies and membranes. Membranes were then incubated with the appropriate horseradish peroxidase-conjugated secondary antibodies (1:5,000 dilution) for 1 h at room temperature and the bands were visualized using the Clarity Max Western ECL Substrate (Biorad) and the ChemiDoc Imaging System (Biorad). Signal was detected with ECL Western Blotting Substrate (Pierce) and X-ray film processed with a Konica SRX-101 X-ray film processor or captured by Bio-Rad's Chemidoc Imaging system.
WES Simple analysis was performed on WES system (ProteinSimple-Biotechne) according to the manufacturer's instructions. Total protein concentrations of cell lysates were determined by the Pierce BCA kit (Thermo Fisher). 3 μL of 0.3 μg/uL of the protein lysate was loaded onto a 12- to 230-kDa WES assay plate (ProteinSimple) where 300 nL sample was withdrawn through a capillary, subjected to electrophoretic separation of proteins by size, and followed by the simultaneous, HRP-based detection of proteins using the Anti-Rabbit Detection Module (Proteinsimple: #DM-001). The electropherograms were checked then the automatic peak detection was manually corrected if it was required.
A black check mark indicates efficacy of 30% to 70% or higher protein degradation.

Data on 13 compounds can be found in patent publication US20240000950A1, “THERAPEUTIC CURE-PRO COMPOUNDS FOR TARGETED DEGRADATION OF BET DOMAIN PROTEINS, AND METHODS OF MAKING AND USING THEM” (CORNELL UNIVERSITY, priority 2020, published 2024).

“Also recorded” adds a separate entry of the source.

As for `COc1ccc2c(c1)C(c1ccc(Cl)cc1)=N[C@@H](CC(=O)Nc1cccc(B(O)O)c1)c1nnc(C)n1-2` [BRD-E73, (3-(2-((4S)-6-(4-chlorophenyl)-8-methoxy-1-methyl-4H-benzo[f][1,2,4]triazolo[4,3-a][1,4]diazepin-4-yl)acetamido)phenyl)boronic acid], the “toxicity / loss of cellular viability (CellTiter-Glo)” value with MV-4-11 cells (72 h, 10 nM-100 μM, cotreated 1:1 with each of CRBN ligands 8066, 8046 and 8047, compared to monomers alone) is “reduced viability; also recorded: increased toxicity”. Turning to `COc1ccc2c(c1)C(c1ccc(Cl)cc1)=N[C@@H](CC(=O)NCCCCCNC(=O)c1cccc(O)c1O)c1nnc(C)n1-2` [BRD-N8, N-(5-(2-((4S)-6-(4-chlorophenyl)-8-methoxy-1-methyl-4H-benzo[f][1,2,4]triazolo[4,3-a][1,4]diazepin-4-yl)acetamido)pentyl)-2,3-dihydroxybenzamide], in the experiment with MV-4-11 cells (1 nM-100 μM, cotreated 1:1 with CRBN ligand 8049), the “toxicity / loss of cellular viability (CellTiter-Glo)” value is recorded as “a concentration-dependent loss in cellular viability was observed; also recorded: increased toxicity”. Regarding `CCNC(=O)C[C@@H]1N=C(c2ccc(Cl)cc2)c2cc(OCCCCC(=O)Nc3ccc(O)c(O)c3)ccc2-n2c(C)nnc21` [BRD-N22, 5-(((4S)-6-(4-chlorophenyl)-4-(2-(ethylamino)-2-oxoethyl)-1-methyl-4H-benzo[f][1,2,4]triazolo[4,3-a][1,4]diazepin-8-yl)oxy)-N-(3,4-dihydroxyphenyl)pentanamide], the “Degradation of BRD4, combination with CRBN ligand [drawing 457]” value (from here on “Degradation of BRD4 … [drawing 457]”) on BRD4 (Table 4) was “✓ (A black check mark indicates efficacy of 30% to 70% or higher protein degradation)”.

In the case of `COc1ccc2c(c1)C(c1ccc(Cl)cc1)=N[C@@H](CC(=O)NCCNC(=O)Cc1ccc(O)c(O)c1)c1nnc(C)n1-2` [BRD-N30], the “Degradation of BRD4 … [drawing 457]” value at BRD4 (Table 4) is listed as “✓ (A black check mark indicates efficacy of 30% to 70% or higher protein degradation)”.

With `CCNC(=O)C[C@@H]1N=C(c2ccc(Cl)cc2)c2cc(OCCOCCNC(=O)c3ccc(O)c(O)c3)ccc2-n2c(C)nnc21` [BRD-N38, N-(2-(2-(((4S)-6-(4-chlorophenyl)-4-(2-(ethylamino)-2-oxoethyl)-1-methyl-4H-benzo[f][1,2,4]triazolo[4,3-a][1,4]diazepin-8-yl)oxy)ethoxy)ethyl)-3,4-dihydroxybenzamide], at BRD4 (Table 4), the “Degradation of BRD4 … [drawing 457]” value is listed as “✓ (A black check mark indicates efficacy of 30% to 70% or higher protein degradation)”.

In the case of `CCNC(=O)C[C@@H]1N=C(c2ccc(Cl)cc2)c2cc(OCCOCCOCCNC(=O)c3ccc(O)c(O)c3)ccc2-n2c(C)nnc21` [BRD-N40], the “Degradation of BRD4, combination with VHL ligand [drawing 465]” value on BRD4 (Table 6, aryl-boronic acid-containing VHL ligand drawn as drawing 465) is “✓ (A black check mark indicates efficacy of 30% to 70% or higher protein degradation)”. As for `COc1ccc2c(c1)C(c1ccc(Cl)cc1)=N[C@@H](CC(=O)NCCOCCOCCOCCNC(=O)c1ccc(O)c(O)c1)c1nnc(C)n1-2` [BRD-N44], the “Degradation of BRD4 … [drawing 457]” value at BRD4 (Table 4) is “✓ (A black check mark indicates efficacy of 30% to 70% or higher protein degradation)”. With `CCNC(=O)C[C@@H]1N=C(c2ccc(Cl)cc2)c2cc(-c3ccc4cc(O)c(O)cc4c3)ccc2-n2c(C)nnc21` [BRD-N67], the “Degradation of BRD4 … [drawing 457]” value at BRD4 (Table 4) is “✓ (A black check mark indicates efficacy of 30% to 70% or higher protein degradation)”. Besides, the “Degradation of BRD4, combination with CRBN ligand [drawing 458]” value at BRD4 (Table 4, aryl-boronic acid-containing CRBN ligand drawn as drawing 458 (by the text apparently 8049)) was “✓ (A black check mark indicates efficacy of 30% to 70% or higher protein degradation)”.

For `COc1ccc2c(c1)C(c1ccc(Cl)cc1)=N[C@@H](CC(=O)Nc1ccc(O)c(O)c1)c1nnc(C)n1-2` [BRD-N68], the “Degradation of BRD4 … [drawing 457]” value at BRD4 (Table 4) is on record as “✓ (A black check mark indicates efficacy of 30% to 70% or higher protein degradation)”. Still for that read-out and setting: with `COc1ccc2c(c1)C(c1ccc(Cl)cc1)=N[C@@H](CC(=O)NCCOCCOCCOCCOCCNC(=O)c1ccc(O)c(O)c1)c1nnc(C)n1-2` [BRD-N69] the entry was “✓ (A black check mark indicates efficacy of 30% to 70% or higher protein degradation)”; with `CCNC(=O)C[C@@H]1N=C(c2ccc(Cl)cc2)c2cc(OCCOCCOCCOCCOCCOCCNC(=O)c3ccc(O)c(O)c3)ccc2-n2c(C)nnc21` [BRD-N70, N-(17-(((4S)-6-(4-chlorophenyl)-4-(2-(ethylamino)-2-oxoethyl)-1-methyl-4H-benzo[f][1,2,4]triazolo[4,3-a][1,4]diazepin-8-yl)oxy)-3,6,9,12,15-pentaoxaheptadecyl)-3,4-dihydroxybenzamide], “✓ (A black check mark indicates efficacy of 30% to 70% or higher protein degradation)”. `CCNC(=O)C[C@@H]1N=C(c2ccc(Cl)cc2)c2cc(OCCOCCOCCOCCOCCOCCNC(=O)c3cccc(O)c3O)ccc2-n2c(C)nnc21` [BRD-N71, N-(17-(((4S)-6-(4-chlorophenyl)-4-(2-(ethylamino)-2-oxoethyl)-1-methyl-4H-benzo[f][1,2,4]triazolo[4,3-a][1,4]diazepin-8-yl)oxy)-3,6,9,12,15-pentaoxaheptadecyl)-2,3-dihydroxybenzamide]: at BRD4 (Table 4), the “Degradation of BRD4 … [drawing 457]” value is “✓ (A black check mark indicates efficacy of 30% to 70% or higher protein degradation)”. Further, the “Degradation of BRD4, combination with MDM2 ligand [drawing 464]” value on BRD4 (Table 5, aryl-boronic acid-containing MDM2 ligand drawn as drawing 464 (apparently 8312)) is “✓ (A black check mark indicates efficacy of 30% to 70% or higher protein degradation)”. As for `O=C1CCC(N2C(=O)c3cccc(CNC(=O)c4cccc(B(O)O)c4)c3C2=O)C(=O)N1` (stereo not drawn) [compound 8049], the “loss of cellular viability (CellTiter-Glo)” value in the experiment on MV-4-11 cells (1 nM-100 μM, monomer alone) is given as “little loss of viability was observed”.
